The nature of data set [1]: Aqueous solubility (OECD Guideline No. 105). It counts as physicochemical. The following applies: water; 3 replications. Here is the method:
(§1) Melting point was determined with an Electrothermal 9200 apparatus (UK). Aqueous solubility and octanol/water partition coefficient of the synthesized derivative was determined according to Organisation for Economic Co-operation and Development (OECD) Guideline for Testing of Chemicals, No.105, and No. 107 respectively ([11]-[13]).

Data set [2] can be described thus: Octanol/water partition coefficient, log P (OECD Guideline No. 107). It counts as physicochemical. The note with it: n = 3, read-out: log P (logarithm of octanol/water partition coefficient). Here is the method: as §1
Data set [3] can be described thus: Forced degradation stability study (ICH guideline for new drug substance). It counts as physicochemical. The note with it: for Forced tests results, Mean ±SD: fraction recovered intact, 3 replications. Here is the method: The stability study was conducted according to forced degradation protocol ICH guideline for new drug substance ([14]-[16]). In brief, the stability of AZGH101 at acidic, basic, and neutral medium was evaluated. Moreover, the effect of oxidative condition (H2O2, 3 and 30%), thermal degradation at solid state, and photolysis on the stability of AZGH101 was examined.

A short description of data set [4]: Pharmacokinetic study after oral and intravenous administration to Wistar rats. It counts as in vivo. The following applies: for k el: Wistar, read-out: β (elimination rate constant) (converted); for bioavailability: oral 20 mg/kg vs intravenous 10 mg/kg; for half-life: read-out: t1/2 β (converted). Here is the method:
Male and female Wistar rats weighting 250 ± 10 g were used. They were kept at 25 ± 1 °C temperature and controlled humidity with 12 h light/dark cycle. The animals were fasted overnight before the experiment and had free access to water. The study protocol was approved by the local committee for animal experiments of Shahid Beheshti University of Medical Sciences (Tehran, Iran).
Male or female rats were chosen randomly (6 rats/group) and assigned to receive […] solution in normal saline for intravenous (IV) via the tail vein or oral administration via oral gavages. The administered doses in both sexes for intravenous (IV) and oral studies were 10 mg/kg and 20 mg/kg, respectively. Blood samples were collected from the tail vein immediately prior to administration (blank sample) and at 0.08, 0.25, 0.5, 1, 2, 4, 6, 8, 10, 21 and 22 h after administration into heparinized micro-tubes. Blood samples were centrifuged at 1000 g for 10 min and the separated plasmas were kept at –20 °C until analysis.
Pharmacokinetic analyses were performed using WinNonlin software (Pharsight Corporation, Mountain View, USA, Version 3.2) and two-compartmental model was chosen. The following pharmacokinetic parameters were estimated: terminal elimination half-life (t1/2), area under the plasma concentration versus time curve from zero to the infinity (AUC 0-∞), distribution and elimination rate constants (α, β), volume of distribution (Vd), and total body clearance (CL). The peak plasma concentration (Cmax) and the time to reach Cmax (Tmax) for oral dose were obtained directly from the observed individual plasma concentration-time data.

A further data set concerns COX-2. The following applies: cited from earlier work.
The conditions of data set [5]: 'It was reported'; cited from earlier work.
For data set [6] the following is noted: cited from earlier work.
Where [7] appears, read: oral 20 mg/kg, female Wistar rats.
Setting [8] is: oral 20 mg/kg, male Wistar rats.
Setting [9] is: rat, plasma, intravenous 10 mg/kg, female Wistar rats.
Setting [10] is: rat, plasma, intravenous 10 mg/kg, male Wistar rats.
Where [11] appears, read: rat, plasma, oral 20 mg/kg, female Wistar rats.
[12] abbreviates: rat, plasma, oral 20 mg/kg, male Wistar rats.

≈ marks a conversion by molar mass, not a printed value. Where two headings read alike, the source gives them in different places.

The molecule `CS(=O)(=O)c1ccc(-c2cc(C(=O)O)c3cc(C(=O)c4ccccc4)ccc3n2)cc1` [AZGH101, 6-benzoyl-2-(4-(methylsulfonyl)phenyl)quinoline-4-carboxylic acid] gave a solubility in data set [1] of 1.4 ± 0.17 µg/mL (≈ 3.24 µM). Also, the logP in data set [2] was 3.82 ± 0.001. Further, the “Forced tests results, Mean ±SD” value in data set [3] (Hydrolysis (Acid)) was 0.95±0.02; in data set [3] (Hydrolysis (Base)), 0.92±0.03; in data set [3] (Hydrolysis (Buffer pH=7)), 0.94±0.02; in data set [3] (Oxidative stress (H2O2-3%)), 0.93±0.04; in data set [3] (Oxidative stress (H2O2-30%)), 0.91±0.02; in data set [3] (Photodegradation (Acid)), 0.94±0.02. Besides, the “Forced tests results, Mean ±SD” value in data set [3] (Photodegradation (Base)) amounted to 0.94±0.01; in data set [3] (Photodegradation (Buffer pH=7)), 0.95±0.02; in data set [3] (Thermal Degradation (solid phase)), 0.96±0.03. Further, the AZGH101 recovered intact result in data set [3] (in all of the examined stress conditions) is recorded as “more than 90%”. The k el was 9.72e-05 s⁻¹ in data set [4] (female, rat, plasma, iv, 10 mg/kg, intravenous 10 mg/kg, female Wistar rats); 3.61e-05 s⁻¹ in data set [4] (female, rat, plasma, po, 20 mg/kg, oral 20 mg/kg, female Wistar rats); 9.72e-05 s⁻¹ in data set [4] (male, rat, plasma, iv, 10 mg/kg, intravenous 10 mg/kg, male Wistar rats); 3.89e-05 s⁻¹ in data set [4] (male, rat, plasma, po, 20 mg/kg, oral 20 mg/kg, male Wistar rats). The “α (distribution rate constant)” value came to 3.70 ± 0.80 h⁻¹ in data set [4] (intravenous 10 mg/kg, female Wistar rats); 4.25 ± 0.99 h⁻¹ in data set [4] (intravenous 10 mg/kg, male Wistar rats); 3.86 ± 2.99 h⁻¹ in data set [4] (setting [7]); 3.34 ± 1.26 h⁻¹ in data set [4] (setting [8]). Besides, the “β (elimination rate constant)” value was determined as 0.355 ± 0.006 h⁻¹ in data set [4] (intravenous 10 mg/kg, female Wistar rats, 10 mg/kg) and 0.349 ± 0.008 h⁻¹ in data set [4] (intravenous 10 mg/kg, male Wistar rats, 10 mg/kg). For the same molecule, the values for the Cl in data set [4] (setting [7]) and in data set [4] (setting [8]) were 31.73 ± 3.31 mL/h and 32.45 ± 1.65 mL/h, respectively. In addition, the Ka is 1.00 ± 0.10 h⁻¹ in data set [4] (setting [7]) and 0.92 ± 0.18 h⁻¹ in data set [4] (setting [8]). In addition, the Vd in data set [4] (setting [7]) was 245.87 ± 44.86 mL; in data set [4] (setting [8]), 233.55 ± 27.82 mL; in data set [4] (rat, plasma, intravenous 10 mg/kg, female Wistar rats, read-out: Vd), 89.3 ± 7.68 mL; in data set [4] (rat, plasma, intravenous 10 mg/kg, male Wistar rats, read-out: Vd) it was 94.1 ± 6.42 mL. In addition, the bioavailability in data set [4] (rat, plasma, Wistar rats, both sexes, read-out: oral absolute bioavailability) is approximately 27%; in data set [4] (rat, plasma, female Wistar rats, read-out: F (oral absolute bioavailability)) it was 27.73 ± 0.01%; in data set [4] (rat, plasma, male Wistar rats, read-out: F (oral absolute bioavailability)), 26.02 ± 0.03%. Also, the AUC(0-inf) was determined as 79400 ± 5810 ng·h/mL in data set [4] (setting [9]), 77100 ± 3620 ng·h/mL in data set [4] (setting [10]), 41300 ± 4200 ng·h/mL in data set [4] (setting [11]) and 42800 ± 2240 ng·h/mL in data set [4] (setting [12]). The figures for the C0 in data set [4] (setting [9]) and in data set [4] (setting [10]) were 86.8 ± 11.3 µg/mL and 92.3 ± 11 µg/mL, respectively. Moreover, the clearance in data set [4] (setting [9]) was 0.527 mL/min; in data set [4] (setting [10]), 0.541 mL/min. For the same molecule, the half-life in data set [4] (setting [9]) is 1.97 ± 0.06 h; in data set [4] (setting [10]) it was 2.01 ± 0.04 h; in data set [4] (setting [11]), 5.34 ± 0.48 h; in data set [4] (setting [12]) it was 4.99 ± 0.52 h. In addition, the figures for the highest concentration (Cmax) in data set [4] (setting [11]) and in data set [4] (setting [12]) were 21.8 ± 1.33 µg/mL and 20.4 ± 1.49 µg/mL, respectively. The Tmax in data set [4] (setting [11]) and in data set [4] (setting [12]) was 0.5 h in each case. The IC50 in the data set on COX-2 is 77 nM. For the same molecule, the “selectivity index (COX-1 IC50 / COX-2 IC50)” value in the data set on COX-2 is given as “less than 500”. Further, the “tendency against inhibition of COX-2, times greater than ketoprofen” value with COX-2 (relative to ketoprofen) is on record as “about 10 times”.
Take `Cc1ccc(-c2cc(C(F)(F)F)nn2-c2ccc(S(N)(=O)=O)cc2)cc1` [celecoxib]: the solubility in water in data set [5] is 3.3 µg/mL (≈ 8.65 µM).
For `CC(C(=O)O)c1cccc(C(=O)c2ccccc2)c1` (stereo not drawn) [ketoprofen], the “log P” value in data set [6] is on record as 3.1.

The values above are taken from article PMC5937083, “Physicochemical, Stress Degradation Evaluation and Pharmacokinetic Study of AZGH101; a New Synthesized COX2 Inhibitor after I.V. and Oral Administration in Male and Female Rats” (Iranian Journal of Pharmaceutical Research : IJPR, 2018).
